We go through 13 compounds from PubChem BioAssay AID248 (DTP/NCI, 2004).

The test has as its system L1210 leukemia ip in BDF1 mice, survival T/C. Nature of the test: NCI In Vivo Anticancer Drug Screen. Data for tumor model L1210 Leukemia (intraperitoneal) in B6D2F1 (BDF1) mice. As to conditions: endpoint: mean survival time, higher = longer survival. The method, boiled down:
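Each compound was tested against a transplantable tumor grown in mice. The endpoint was survival, with treated animals benchmarked against vehicle controls as a simple ratio.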

Setting [1] is: dose: 100.0 mg/kg/injection, schedule: Q01DX001 (ip), vehicle: Klucel (hydroxypropylcellulose) (HPC).
The mark [2] stands for this setting: dose: 100.0 mg/kg/injection, schedule: Q04DX003 (ip), vehicle: Klucel (hydroxypropylcellulose) (HPC).
Where [3] appears, read: dose: 200.0 mg/kg/injection, schedule: Q01DX001 (ip), vehicle: Klucel (hydroxypropylcellulose) (HPC).
Where [4] appears, read: dose: 200.0 mg/kg/injection, schedule: Q04DX003 (ip), vehicle: Klucel (hydroxypropylcellulose) (HPC).
Where [5] appears, read: dose: 100.0 mg/kg/injection, schedule: Q01DX009 (ip), vehicle: Klucel (hydroxypropylcellulose) (HPC).
Where [6] appears, read: dose: 200.0 mg/kg/injection, schedule: Q01DX009 (ip), vehicle: Klucel (hydroxypropylcellulose) (HPC).
The mark [7] stands for this setting: dose: 400.0 mg/kg/injection, schedule: Q04DX003 (ip), vehicle: Klucel (hydroxypropylcellulose) (HPC).
Where [8] appears, read: dose: 100.0 mg/kg/injection, schedule: Q01DX001 (ip), vehicle: saline.
[9] abbreviates: dose: 200.0 mg/kg/injection, schedule: Q01DX001 (ip), vehicle: saline.
[10] abbreviates: dose: 400.0 mg/kg/injection, schedule: Q01DX001 (ip), vehicle: saline.

Where “and” joins values, the source holds several entries; their conditions need not be identical. Equal values may be shown once. Toxic doses and inconclusive results are not listed.

For the compound `CC1CCC2(CC1)OCC(CCl)O2` (stereo not given), the T/C (dose: 222.0 mg/kg/injection, schedule: Q01DX Z (ip), vehicle: saline) is 107 % of control; the T/C (dose: 333.0 mg/kg/injection, schedule: Q01DX Z (ip), vehicle: saline) was 110 % of control; the T/C (dose: 500.0 mg/kg/injection, schedule: Q01DX Z (ip), vehicle: saline) is 113 % of control.
As for `O=C(O)c1cccc(F)c1.[Ni]`, the T/C was 100 % of control (dose: 25.0 mg/kg/injection, schedule: Q04DX002 (ip), vehicle: gum acacia); 103 % of control (dose: 50.0 mg/kg/injection, schedule: Q04DX002 (ip), vehicle: gum acacia); 117 % of control (dose: 100.0 mg/kg/injection, schedule: Q04DX002 (ip), vehicle: gum acacia).
Take `O=[N+]([O-])c1ccc2c(c1)n([O-])c1ccccc1[n+]2=O`: the T/C was 89 % of control (dose: 50.0 mg/kg/injection, schedule: Q04DX003 (ip), vehicle: Klucel (hydroxypropylcellulose) (HPC)); 97 % of control under setting [1]; 90 % of control and 92 % of control under setting [2]; 95 % of control under setting [3]; 97 % of control and 101 % of control under setting [4].
Turning to `Nc1ccc2c(c1)Cc1cc(Br)ccc1-2`, the T/C was 103 % of control under setting [5]; 96 % of control under setting [2]; 101 % of control under setting [6]; 102 % of control under setting [4]; 101 % of control (dose: 400.0 mg/kg/injection, schedule: Q01DX009 (ip), vehicle: Klucel (hydroxypropylcellulose) (HPC)); 108 % of control under setting [7].
`COc1ccc(C2=CC(c3ccc(OC)c(OC)c3)c3c(c4ccccc4oc3=O)O2)cc1OC` (stereo not given): the T/C was 93 % of control (dose: 25.0 mg/kg/injection, schedule: Q01DX009 (ip), vehicle: water); 98 % of control (dose: 50.0 mg/kg/injection, schedule: Q01DX009 (ip), vehicle: water); 93 % of control (dose: 100.0 mg/kg/injection, schedule: Q01DX009 (ip), vehicle: water); 94 % of control (dose: 200.0 mg/kg/injection, schedule: Q01DX009 (ip), vehicle: water); 92 % of control (dose: 400.0 mg/kg/injection, schedule: Q01DX009 (ip), vehicle: water).
As for `Nc1nc(F)nc2c1ncn2C1OC(CO)C(O)C1O` (stereo not given), the T/C reads like this: (dose: 0.75 mg/kg/injection, schedule: Q01DX Z (ip), vehicle: saline) 106 % of control; (dose: 1.0 mg/kg/injection, schedule: Q01DX015 (ip), vehicle: saline) 104 % of control; (dose: 1.5 mg/kg/injection, schedule: Q01DX Z (ip), vehicle: saline) 112 % of control; (dose: 1.6 mg/kg/injection, schedule: Q01DX015 (ip), vehicle: saline) 98 % of control; (dose: 2.4 mg/kg/injection, schedule: Q01DX015 (ip), vehicle: saline) 96 % of control; (dose: 3.0 mg/kg/injection, schedule: Q01DX Z (ip), vehicle: saline) 104 % of control. The T/C reads like this: (dose: 3.6 mg/kg/injection, schedule: Q01DX015 (ip), vehicle: saline) 96 % of control; (dose: 5.4 mg/kg/injection, schedule: Q01DX015 (ip), vehicle: saline) 87 % of control; (dose: 6.0 mg/kg/injection, schedule: Q01DX Z (ip), vehicle: saline) 113 % of control; (dose: 65.0 mg/kg/injection, schedule: Q03HX024 (ip), vehicle: saline with Tween-80) 205 % of control; (dose: 65.0 mg/kg/injection, schedule: Q06HX012 (ip), vehicle: saline with Tween-80) 160 % of control; (dose: 80.0 mg/kg/injection, schedule: Q03HX024 (ip), vehicle: saline with Tween-80) 291 % of control. For the same compound, the T/C reads like this: (dose: 80.0 mg/kg/injection, schedule: Q06HX012 (ip), vehicle: saline with Tween-80) 177 % of control; (dose: 90.0 mg/kg/injection, schedule: Q03HX024 (ip), vehicle: saline with Tween-80) 276 % of control; under setting [8], 105 % of control; (dose: 100.0 mg/kg/injection, schedule: Q03HX024 (ip), vehicle: saline with Tween-80) 301 % of control and 357 % of control (2×); (dose: 100.0 mg/kg/injection, schedule: Q03HX024 (oral), vehicle: saline with Tween-80) 160 % of control; (dose: 110.0 mg/kg/injection, schedule: Q03HX024 (ip), vehicle: saline with Tween-80) 157 % of control. Besides, the T/C was 100 % of control (dose: 125.0 mg/kg/injection, schedule: Q03HX024 (ip), vehicle: saline with Tween-80); 163 % of control (dose: 125.0 mg/kg/injection, schedule: Q06HX012 (ip), vehicle: saline with Tween-80); 83 % of control (dose: 150.0 mg/kg/injection, schedule: Q03HX024 (ip), vehicle: saline with Tween-80); 166 % of control (dose: 150.0 mg/kg/injection, schedule: Q03HX024 (oral), vehicle: saline with Tween-80); 181 % of control and 326 % of control (dose: 150.0 mg/kg/injection, schedule: Q06HX012 (ip), vehicle: saline with Tween-80); 107 % of control under setting [9]. Besides, the T/C reads like this: (dose: 200.0 mg/kg/injection, schedule: Q06HX012 (ip), vehicle: saline with Tween-80) 219 % of control; (dose: 250.0 mg/kg/injection, schedule: Q06HX012 (ip), vehicle: saline with Tween-80) 122 % of control; (dose: 300.0 mg/kg/injection, schedule: Q01DX009 (ip), vehicle: saline with Tween-80) 86 % of control; (dose: 300.0 mg/kg/injection, schedule: Q12HX006 (ip), vehicle: saline with Tween-80) 204 % of control and 225 % of control; (dose: 350.0 mg/kg/injection, schedule: Q12HX006 (ip), vehicle: saline with Tween-80) 205 % of control; under setting [10], 122 % of control. In addition, the T/C is 207 % of control and 288 % of control (dose: 400.0 mg/kg/injection, schedule: Q12HX006 (ip), vehicle: saline with Tween-80); 228 % of control (dose: 450.0 mg/kg/injection, schedule: Q12HX006 (ip), vehicle: saline with Tween-80); 186 % of control (dose: 600.0 mg/kg/injection, schedule: Q04DX003 (ip), vehicle: saline with Tween-80); 106 % of control (dose: 750.0 mg/kg/injection, schedule: Q12HX006 (ip), vehicle: saline with Tween-80); 200 % of control (dose: 800.0 mg/kg/injection, schedule: Q04DX003 (ip), vehicle: saline with Tween-80); 205 % of control (dose: 1000.0 mg/kg/injection, schedule: Q04DX003 (ip), vehicle: saline with Tween-80).
Turning to `COC(=O)N1CC=CCN1C(=O)OC`, the T/C (dose: 100.0 mg/kg/injection, schedule: Q04DX003 (ip), vehicle: saline) is 94 % of control; the T/C (dose: 200.0 mg/kg/injection, schedule: Q04DX003 (ip), vehicle: saline) was 116 % of control; the T/C (dose: 400.0 mg/kg/injection, schedule: Q04DX003 (ip), vehicle: saline) was 115 % of control.
On to `CCOC(=O)c1cnc(SC)nc1OCC`, for which the T/C was 93 % of control (dose: 12.0 mg/kg/injection, schedule: Q01DX001 (ip), vehicle: Klucel (hydroxypropylcellulose) (HPC)) and 104 % of control (dose: 25.0 mg/kg/injection, schedule: Q01DX001 (ip), vehicle: Klucel (hydroxypropylcellulose) (HPC)).
As to `CN(C)P1(=O)N(C)CCN1C`, the T/C runs as follows: under setting [8], 100 % of control; under setting [9], 98 % of control; under setting [10], 94 % of control.
For the compound `Cc1ccc(NC(=O)Oc2cccnc2)cc1NC(=O)Oc1cccnc1`, the T/C reads like this: under setting [5], 93 % of control; under setting [6], 94 % of control.
For the compound `Cc1ccccc1C[As](C)(=O)O`, the T/C was 98 % of control under setting [1] and 118 % of control under setting [3].
On to `Cc1cc(C)c(C(=O)C2CC=CCC2c2c(C)cc(C)cc2C)c(C)c1` (stereo not given), for which the T/C is 101 % of control under setting [2], 94 % of control under setting [4] and 95 % of control under setting [7].
With `CN(C)c1ccc2nc3c(C(=O)O)cc(=O)c(O)c-3oc2c1`, the T/C was 104 % of control (dose: 50.0 mg/kg/injection, schedule: Q01DX001 (ip), vehicle: carboxymethylcellulose (CMC)) and 101 % of control (dose: 100.0 mg/kg/injection, schedule: Q01DX001 (ip), vehicle: carboxymethylcellulose (CMC)).
